Experimental data reported in patent US10913750B2, “Tubulin-binding compounds, compositions and uses related thereto” (The Regents of the University of California, priority 2015, dated 2021).

Columns and labels:
[1] = test system: M375; test: CellTiter-Glo cell viability, M375; type: cell-based
Protocol: (§1) To determine if MI-181 had broad anti-cancer activity, we treated a diverse panel of cancer cell lines including cervical adenocarcinoma (HeLa), breast adenocarcinoma (MCF7), melanoma (M233), osteosarcoma (U205), acute lymphoblastic leukemia (CCRF-CEM), non-small cell lung carcinoma (NCI-H460), and breast adenocarcinoma (MCF7) with MI-181 and determined its cell viability IC50 (FIGS. 13A and 13B). […] Therefore, the efficacy of MI-181 was analyzed in a panel of melanoma cell lines with defined genetic backgrounds including BRAF^V600E and NRAS^Q61L mutations and varied sensitivities to Vemurafenib (BRAF inhibitor) and Trametinib (MEK inhibitor), which are currently used to treat BRAF^V600E melanomas^43,44 (FIG. 10c). […] As a general trend BRAF^V600E cell lines were slightly more sensitive than NRAS^Q61L cell lines and MI-181 was effective in Vemurafenib and Trametinib resistant cell lines (FIG. 10c and Table 3). Finally, we tested the ability of MI-181 to inhibit melanoma colony formation using the M233 and M308 cell lines (both resistant to Vemurafenib). Indeed, MI-181 was a potent inhibitor of colony formation (percentage colony formation for 10 nM MI-181=0.2±0.1 and 0.8±0.7; for 10 nM colchicine=0.1±0.06 and 1.5±0.5; and for 10 nM Vemurafenib=94±7 and 102±5) (FIG. 10d). Thus, MI-181 is a potent inhibitor of melanoma cell lines. […]

[2] = test system: M308; test: CellTiter-Glo cell viability, M308; type: cell-based
Protocol: as §1

[3] = test system: M244; test: CellTiter-Glo cell viability, M244; type: cell-based
Protocol: as §1

[4] = molecular target: T1, tubulin (Sus scrofa, UniProt P02554); test: In vitro tubulin polymerization assay (HTS-tubulin polymerization kit, Cytoskeleton); type: biochemical; conditions: 3 μM compound, fluorescence, 70 minutes at 37° C.
T1 construct: purchased Cytoskeleton Inc. BK011P
Protocol: 1.5 ul of 10× strength compound, 20 μl of tubulin solution and Triton X-100 at a final concentration of 0.01% were added to each well in a 384 well plate. The reactions were assembled on ice to prevent tubulin pre-polymerization. For kinetic measurements, microtubule polymerization was monitored by reading the fluorescence at 420 nm (due to the incorporation of a fluorescent reporter into microtubules as polymerization occurs) every ten seconds using a Tecan M1000 microplate reader (FIG. 6B). […] Fluorescence increased as polymerization occurred, due to the incorporation of 4′,6-diamidino-2-phenylindole. Fluorescence was monitored every minute for 70 minutes at 37° C.
Tubulin polymerization reactions were carried out according to the manufacturer (Cytoskeleton, BK011P) in the presence of 3 μM colchicine, MI-181, taxol or DMSO. Polymerization was monitored with a Tecan M1000 micro-plate reader at 420 nm for 70 minutes at 37° C. The results are depicted in FIG. 11.

[5] = test system: M202; test: CellTiter-Glo cell viability, M202; type: cell-based
Protocol: as §1

T1 sequence (P02554 whole entry): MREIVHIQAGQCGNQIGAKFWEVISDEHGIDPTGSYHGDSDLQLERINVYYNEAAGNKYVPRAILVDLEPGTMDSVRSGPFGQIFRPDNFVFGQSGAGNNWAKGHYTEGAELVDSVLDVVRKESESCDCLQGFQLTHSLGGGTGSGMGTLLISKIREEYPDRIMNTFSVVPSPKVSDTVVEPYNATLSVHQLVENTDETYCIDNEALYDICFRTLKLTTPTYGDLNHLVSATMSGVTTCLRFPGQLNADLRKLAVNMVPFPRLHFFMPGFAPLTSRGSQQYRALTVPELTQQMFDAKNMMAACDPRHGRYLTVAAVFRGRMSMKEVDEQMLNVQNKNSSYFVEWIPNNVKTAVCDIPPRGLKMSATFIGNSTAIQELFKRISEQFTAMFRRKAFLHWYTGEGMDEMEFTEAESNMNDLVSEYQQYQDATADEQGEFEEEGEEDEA
T1 sequence (P02550 whole entry partner): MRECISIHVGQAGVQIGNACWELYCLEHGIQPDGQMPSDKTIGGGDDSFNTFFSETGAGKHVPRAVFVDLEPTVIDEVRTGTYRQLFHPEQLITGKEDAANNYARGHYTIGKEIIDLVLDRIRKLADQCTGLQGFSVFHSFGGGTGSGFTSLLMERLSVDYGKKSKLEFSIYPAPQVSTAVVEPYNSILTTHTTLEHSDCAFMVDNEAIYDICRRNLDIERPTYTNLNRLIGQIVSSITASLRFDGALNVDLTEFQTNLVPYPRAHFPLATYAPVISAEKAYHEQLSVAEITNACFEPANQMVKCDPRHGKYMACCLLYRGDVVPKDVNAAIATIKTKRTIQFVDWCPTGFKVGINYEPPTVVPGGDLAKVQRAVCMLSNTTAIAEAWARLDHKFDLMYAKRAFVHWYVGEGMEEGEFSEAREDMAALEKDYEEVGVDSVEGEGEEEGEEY

inhibition of microtubule (tubulin) polymerization in vitro [4]: inhibits tubulin polymerization
Structure (SMILES): Cc1cc2nc(/C=C/c3cccnc3)sc2cc1C [MI-181]
IC50 [1]: 58.2 nM
IC50 [2]: 28.3 nM
IC50 [3]: 41.5 nM
IC50 [5]: 88.3 nM
